Assays:
A-375 = assay: Cytotoxicity in human A375 cells assessed as cell viability at 10 uM incubated for 48 hrs by MTT assay; format: functional; settings: A-375, 48 h, read-out: Activity
[1] = biological target: T1, Indoleamine 2,3-dioxygenase 1 (Homo sapiens, UniProt P14902); assay: Inhibition of human recombinant IDO1 assessed as reduction in kynurenine production at 1 uM using L-tryptophan incubated for 60 mins by Ehrlich's reagent based assay
Target sequence in this assay (P14902 whole entry, looked up): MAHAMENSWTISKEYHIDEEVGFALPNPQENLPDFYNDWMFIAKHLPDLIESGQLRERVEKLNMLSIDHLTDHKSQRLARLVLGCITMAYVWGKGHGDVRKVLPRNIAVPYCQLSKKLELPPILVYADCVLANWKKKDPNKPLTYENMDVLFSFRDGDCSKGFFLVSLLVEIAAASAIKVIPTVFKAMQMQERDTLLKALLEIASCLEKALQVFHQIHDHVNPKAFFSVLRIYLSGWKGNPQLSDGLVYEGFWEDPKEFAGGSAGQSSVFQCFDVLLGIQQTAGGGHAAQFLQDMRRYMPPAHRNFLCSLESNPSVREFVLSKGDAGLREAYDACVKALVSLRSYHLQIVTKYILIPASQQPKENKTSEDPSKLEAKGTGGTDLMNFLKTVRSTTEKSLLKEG

[2] = biological target: T1, Indoleamine 2,3-dioxygenase 1; assay: Inhibition of human recombinant IDO1 assessed as reduction in kynurenine production using L-tryptophan incubated for 60 mins by Ehrlich's reagent based assay
Target sequence in this assay (P14902 whole entry): as the sequence (P14902 whole entry, looked up) above

## CN(CC(=O)NCc1cnc2scc(-c3ccc(Br)cc3)n12)C(=O)c1ccc(C#N)cc1
A-375
  viability at 10 µM: 87%
[1]
  inhibition: 47%

## O=C(COC(=O)Cc1ccc([N+](=O)[O-])cc1)NCc1cnc2scc(-c3ccc(Br)cc3)n12
A-375
  viability at 10 µM: 100%
[1]
  inhibition: 39%

## O=C(COC(=O)Cc1ccccc1Cl)NCc1cnc2scc(-c3ccc(Br)cc3)n12
A-375
  viability at 10 µM: 100%
[1]
  inhibition: 46%

## CN(CC(=O)NCc1cnc2scc(-c3ccc(Br)cc3)n12)C(=O)c1ccc([N+](=O)[O-])cc1
A-375
  viability at 10 µM: 100%
[1]
  inhibition: 45%

## O=C(COC(=O)Cc1cccc(O)c1)NCc1cnc2scc(-c3ccc(Br)cc3)n12
A-375
  viability at 10 µM: 100%
[1]
  inhibition: 59%

## O=C(CO)NCc1cnc2scc(-c3ccc(Br)cc3)n12
A-375
  viability at 10 µM: 97%
[1]
  inhibition: 48%

## CN(CC(=O)NCc1cnc2scc(-c3ccc(Br)cc3)n12)C(=O)Cc1ccccc1[N+](=O)[O-]
A-375
  viability at 10 µM: 92%
[1]
  inhibition: 67%
[2]
  IC50: 730 nM

## CN(CC(=O)NCc1cnc2scc(-c3ccc(Br)cc3)n12)C(=O)Cc1ccccc1
A-375
  viability at 10 µM: 100%
[1]
  inhibition: 62%
[2]
  IC50: 690 nM

## CN(CC(=O)NCc1cnc2scc(-c3ccc(Br)cc3)n12)C(=O)c1ccccc1
A-375
  viability at 10 µM: 96%
[1]
  inhibition: 50%

## CN(CC(=O)NCc1cnc2scc(-c3ccc(Br)cc3)n12)C(=O)Cc1ccc([N+](=O)[O-])cc1
A-375
  viability at 10 µM: 100%
[1]
  inhibition: 66%
[2]
  IC50: 810 nM

## N#Cc1ccc(NC(=O)NCc2cnc3scc(-c4ccc(Br)cc4)n23)cc1
A-375
  viability at 10 µM: 99%
[1]
  inhibition: 97%
[2]
  IC50: 80 nM

## O=C(COC(=O)Cc1ccccc1[N+](=O)[O-])NCc1cnc2scc(-c3ccc(Br)cc3)n12
A-375
  viability at 10 µM: 100%
[1]
  inhibition: 41%

## CN(CC(=O)NCc1cnc2scc(-c3ccc(Br)cc3)n12)C(=O)Cc1ccc(C#N)cc1
A-375
  viability at 10 µM: 92%
[1]
  inhibition: 18%

## N[C@H](C(=O)NCC(=O)NCc1cnc2scc(-c3ccc(Br)cc3)n12)c1ccc(O)cc1
A-375
  viability at 10 µM: 100%
[1]
  inhibition: 0%

## CN(CC(=O)NCc1cnc2scc(-c3ccc(Br)cc3)n12)C(=O)Cc1ccc(O)c(O)c1
A-375
  viability at 10 µM: 99%
[1]
  inhibition: 34%

## CN(CC(=O)NCc1cnc2scc(-c3ccc(Br)cc3)n12)C(=O)Cc1cccc(C#N)c1
A-375
  viability at 10 µM: 90%
[1]
  inhibition: 0%

## O=C(COC(=O)Cc1cccc(Cl)c1)NCc1cnc2scc(-c3ccc(Br)cc3)n12
A-375
  viability at 10 µM: 100%
[1]
  inhibition: 39%

## CN(CC(=O)NCc1cnc2scc(-c3ccc(Br)cc3)n12)C(=O)Cc1cccc(O)c1
A-375
  viability at 10 µM: 100%
[1]
  inhibition: 63%
[2]
  IC50: 450 nM

## N[C@H](C(=O)NCC(=O)NCc1cnc2scc(-c3ccc(Br)cc3)n12)c1ccccc1
A-375
  viability at 10 µM: 96%
[1]
  inhibition: 10%

## CN(CC(=O)NCc1cnc2scc(-c3ccc(Br)cc3)n12)C(=O)Cc1ccccc1O
A-375
  viability at 10 µM: 88%
[1]
  inhibition: 0%

## CN(CC(=O)NCc1cnc2scc(-c3ccc(Br)cc3)n12)C(=O)Cc1cccc(Cl)c1
A-375
  viability at 10 µM: 83%
[1]
  inhibition: 39%

## CC(=O)N(C)CC(=O)NCc1cnc2scc(-c3ccc(Br)cc3)n12
A-375
  viability at 10 µM: 98%
[1]
  inhibition: 21%

## O=C(COC(=O)Cc1ccc(O)c(O)c1)NCc1cnc2scc(-c3ccc(Br)cc3)n12
A-375
  viability at 10 µM: 99%
[1]
  inhibition: 40%

## CN(CC(=O)NCc1cnc2scc(-c3ccc(Br)cc3)n12)C(=O)Cc1ccc(Cl)cc1
A-375
  viability at 10 µM: 64%
[1]
  inhibition: 51%

## NS(=O)(=O)NCCNc1nonc1/C(=N/O)Nc1ccc(F)c(Br)c1 [EPACADOSTAT]
A-375
  viability at 10 µM: 100%

## O=C(COC(=O)Cc1ccc(Cl)cc1)NCc1cnc2scc(-c3ccc(Br)cc3)n12
A-375
  viability at 10 µM: 100%
[1]
  inhibition: 32%

## CN(CC(=O)NCc1cnc2scc(-c3ccc(Br)cc3)n12)C(=O)Cc1ccc(O)cc1
A-375
  viability at 10 µM: 91%
[1]
  inhibition: 55%

## N#Cc1cccc(CC(=O)OCC(=O)NCc2cnc3scc(-c4ccc(Br)cc4)n23)c1
A-375
  viability at 10 µM: 97%
[1]
  inhibition: 29%

## O=C(COC(=O)Cc1ccccc1O)NCc1cnc2scc(-c3ccc(Br)cc3)n12
A-375
  viability at 10 µM: 100%
[1]
  inhibition: 73%
[2]
  IC50: 870 nM

## N#Cc1ccc(CC(=O)OCC(=O)NCc2cnc3scc(-c4ccc(Br)cc4)n23)cc1
A-375
  viability at 10 µM: 100%
[1]
  inhibition: 69%
[2]
  IC50: 340 nM

## O=C(COC(=O)Cc1ccccc1)NCc1cnc2scc(-c3ccc(Br)cc3)n12
A-375
  viability at 10 µM: 98%
[1]
  inhibition: 72%
[2]
  IC50: 580 nM

## CN(CC(=O)NCc1cnc2scc(-c3ccc(Br)cc3)n12)C(=O)Cc1cccc([N+](=O)[O-])c1
A-375
  viability at 10 µM: 93%
[1]
  inhibition: 65%
[2]
  IC50: 630 nM

## Cn1cc(C[C@H](N)C(=O)O)c2ccccc21 [(L)-1-METHYLTRYPTOPHAN]
A-375
  viability at 10 µM: 100%

## CN(CC(=O)NCc1cnc2scc(-c3ccc(Br)cc3)n12)C(=O)Cc1ccccc1Cl
A-375
  viability at 10 µM: 71%
[1]
  inhibition: 41%

## O=C(COC(=O)Cc1ccc(O)cc1)NCc1cnc2scc(-c3ccc(Br)cc3)n12
A-375
  viability at 10 µM: 100%
[1]
  inhibition: 89%
[2]
  IC50: 200 nM

## O=C(COC(=O)Cc1cccc([N+](=O)[O-])c1)NCc1cnc2scc(-c3ccc(Br)cc3)n12
A-375
  viability at 10 µM: 100%
[1]
  inhibition: 50%

## COc1cccc(C(=O)N(C)CC(=O)NCc2cnc3scc(-c4ccc(Br)cc4)n23)c1
A-375
  viability at 10 µM: 98%
[1]
  inhibition: 48%

## COc1ccc(C(=O)N(C)CC(=O)NCc2cnc3scc(-c4ccc(Br)cc4)n23)cc1
A-375
  viability at 10 µM: 82%
[1]
  inhibition: 49%

## O=C(CNC(=O)Cc1ccccc1)NCc1cnc2scc(-c3ccc(Br)cc3)n12
A-375
  viability at 10 µM: 100%
[1]
  inhibition: 46%

— ChEMBL document CHEMBL4184248, “A multicomponent approach in the discovery of indoleamine 2,3-dioxygenase 1 inhibitors: Synthesis, biological investigation and docking studies” (Bioorg Med Chem Lett, 2018)
